Source: US20240287025A1, “TETRAHYDROQUINOLINE (THQ) COUMPOUNDS” (Centre National de la Recherche Scientifique, priority 2021, published 2024)

Tests used:
Brd4 BD1 = Brd4 BD1 (Homo sapiens (Human), UniProt O60885); assay: HTRF evaluation of bromodomain inhibitors, Brd4 BD1; type: binding; conditions: H4ac4 peptide 50 nM, 4 h at 4° C.
Method: (§1) HTRF reagents and buffers were purchased from Cisbio Bioassays. The assay used a terbium (Ill) cryptate donor reagent conjugated to an anti-GST antibody (MAb anti-GST-Tb; GSTTLA), a streptavidin-conjugated acceptor reagent (streptavidin-d2) and Cisbio proprietary buffers (EPlgeneous Binding Domain Diluent and Detection buffer, respectively). GST-tagged bromodomains (BDs) were expressed in E. coli and purified using standard procedures. Incubation of GST-tagged BDs with biotinylated acetylated H4 peptide (H4K5acK8acK12acK16ac, here named H4ac4) brings the donor and acceptor into close proximity and allows for a FRET reaction. GST-tagged proteins in 25 mM Hepes pH 7.5, 150 mM NaCl, 0.5 mM DTT were assayed at a final concentration of 5 nM. Biotinylated H4ac4 peptides were used at a final concentration of 50, 600 nM in assays involving Brd4 BD1, Brd4 BD2, respectively. The antibody-conjugated donor was used at 0.5 nM and the streptavidin-conjugated acceptor was used at ⅛ of the H4ac4 peptide concentration. Inhibitors were tested by performing an eleven-point dilution series with a maximal final concentration of […]. These concentrations allowed a fixed DMSO concentration at 0.2%, critical for a Z′ factor ≥0.8. Components were incubated at 4° C. for 4 h (BD1) or for 24 h (BD2). Experiments were performed in 384-well white plates (Greiner ref. 781080) and analyzed in a ClarioStar plate reader (BMG LABTECH, excitation at 330 nm and emission at 620 and 665 nm, corresponding to the donor and acceptor emission peaks, respectively; the 665/620 ratio is used to calculate the specific HTRF signal) with an integration delay of 60 μs and an integration time of 400 μs.

Brd4 BD2 = Brd4 BD2 (Homo sapiens (Human), UniProt O60885); assay: HTRF evaluation of bromodomain inhibitors, Brd4 BD2; type: binding; conditions: for IC50: HTRF, H4ac4 peptide 600 nM, 24 h at 4° C.; for Selectivity BD2/BD1: ratio of the BD1 and BD2 IC50
Method: as §1

Compound | IC50 (Brd4 BD1) [nM] | IC50 (Brd4 BD2) [nM] | Selectivity BD2/BD1 (Brd4 BD2)
CC[C@@H]1[C@H](C)[C@@H](N=[N+]=[N-])c2cc(C(=O)OC)ccc2N1C(C)=O (single isomer, unassigned) [ent-27] | > 100000 | > 100000 | –
CC[C@@H]1[C@H](C)[C@@H](n2cc(-c3ccccc3)nn2)c2cc(C(=O)OC)ccc2N1C(C)=O (single isomer, unassigned) [ent-28] | > 100000 | 51400 | –
CC[C@H]1[C@@H](C)[C@H](N=[N+]=[N-])c2cc(C(=O)OC)ccc2N1C(C)=O [Compound 27, Methyl-(2S,3R,4S)-1-acetyl-4-azido-2-ethyl-3-methyl-1,2,3,4-tetrahydroquinoline-6-carboxylate] | 17700 | 1880 | 9.4
CC[C@H]1[C@@H](C)[C@H](n2cc(-c3ccccc3)nn2)c2cc(C(=O)OC)ccc2N1C(C)=O [Compound 28, Methyl-(2S,3R,4S)-1-acetyl-2-ethyl-3-methyl-4-(4-phenyl-1H-1,2,3-triazol-1-yl)-1,2,3,4-tetrahydroquinoline-6-carboxylate] | 8310 | 567 | 14.7
CC[C@H]1[C@H](C)[C@@H](N=[N+]=[N-])c2cc(C(=O)OC)ccc2N1C(C)=O [Compound 30, Methyl-(2S,3S,4R)-1-acetyl-4-azido-2-ethyl-3-methyl-1,2,3,4-tetrahydroquinoline-6-carboxylate] | > 20000 | > 20000 | –
CC[C@H]1[C@H](C)[C@@H](n2cc(-c3ccccc3)nn2)c2cc(C(=O)OC)ccc2N1C(C)=O [Compound 31, Methyl-(2S,3S,4R)-1-acetyl-2-ethyl-3-methyl-4-(4-phenyl-1H-1,2,3-triazol-1-yl)-1,2,3,4-tetrahydroquinoline-6-carboxylate] | > 200000 | 14900 | –
C#CCOCCOCCOCCOCc1cn([C@H]2c3cc(C(=O)OC)ccc3N(C(C)=O)[C@@H](CC)[C@@H]2C)nn1 [Compound 32, Methyl-(2S,3S,4R)-4-(4-(2,5,8,11-tetraoxatetradec-13-yn-1-yl)-1H-1,2,3-triazol-1-yl)-1-acetyl-2-ethyl-3-methyl-1,2,3,4-tetrahydroquinoline-6-carboxylate] | > 20000 | > 20000 | –
C=CCCCC(=O)Nc1ccc(-c2ccc3c(c2)[C@@H](N=[N+]=[N-])[C@H](C)[C@H](CC)N3C(C)=O)cc1 [XC, N-(4-((2S,3R,4S)-1-acetyl-4-azido-2-ethyl-3-methyl-1,2,3,4-tetrahydroquinolin-6-yl)phel)hex-5-enamide] | 3100 | 2230 | 1.4
C=CCCCC(=O)Nc1ccc(-c2ccc3c(c2)[C@@H](n2cc(CCCCC)nn2)[C@H](C)[C@H](CC)N3C(C)=O)cc1 [XE, N-(4-((2S,3R,4S)-1-acetyl-2-ethyl-3-methyl-4-(4-pentyl-1H-1,2,3-triazol-1-yl)-1,2,3,4-tetrahydroquinolin-6-yl)phenyl)hex-5-enamide] | 4080 | 3180 | 1.3
CCCCCc1cn([C@@H]2c3cc(C(=O)OC)ccc3N(C(C)=O)[C@@H](CC)[C@H]2C)nn1 [XF, Methyl (2S,3R,4S)-1-acetyl-2-ethyl-3-methyl-4-(4-pentyl-1H-1,2,3-triazol-1-yl)-1,2,3,4-tetrahydroquinoline-6-carboxylate] | 30000 | 1930 | 15.6
C=CCCCC(=O)Nc1ccc(-c2ccc3c(c2)[C@@H](NC(=O)OC(C)C)[C@H](C)[C@H](CC)N3C(C)=O)cc1 [XI, Isopropyl-((2S,3S,4S)-1-acetyl-2-ethyl-6-(4-(hex-5-enamido)phenyl)-3-methyl-1,2,3,4-tetrahydroquinolin-4-yl)carbamate] | 2680 | 2170 | 1.2
CC[C@H]1[C@@H](C)[C@H](NC(=O)OC(C)C)c2cc(C(=O)OC)ccc2N1C(C)=O [XJ, Methyl-(2S,3S,4S)-1-acetyl-2-ethyl-4-((isopropoxycarbonyl)amino)-3-methyl-1,2,3,4-tetrahydroquinoline-6-carboxylate] | 24200 | 1880 | 12.8
C=CCCCC(=O)Nc1ccc(-c2ccc3c(c2)[C@@H](Nc2ncc(Cl)cn2)[C@H](C)[C@H](CC)N3C(C)=O)cc1 [XK, N-(4-((2S,3S,4S)-1-acetyl-4-((5-chloropyrimidin-2-yl)amino)-2-ethyl-3-methyl-1,2,3,4-tetrahydroquinolin-6-yl)phenyl)hex-5-enamide] | 3140 | 1330 | 2.4
CC[C@H]1[C@@H](C)[C@H](Nc2ncc(Cl)cn2)c2cc(C(=O)OC)ccc2N1C(C)=O [XL, Methyl (2S,3S,4S)-1-acetyl-4-((5-chloropyrimidin-2-yl)amino)-2-ethyl-3-methyl-1,2,3,4-tetrahydroquinoline-6-carboxylate] | 10100 | 1130 | 9.0
CC[C@H]1[C@@H](C)[C@H](n2cc(-c3ccc(OC)cc3)nn2)c2cc(C(=O)OC)ccc2N1C(C)=O [XM, Methyl (2S,3R,4S)-1-acetyl-2-ethyl-4-(4-(4-methoxyphenyl)-1H-1,2,3-triazol-1-yl)-3-methyl-1,2,3,4-tetrahydroquinoline-6-carboxylate] | 2980 | 563 | 5.3
CC[C@H]1[C@@H](C)[C@H](n2cc(-c3ccc(C(F)(F)F)cc3)nn2)c2cc(C(=O)OC)ccc2N1C(C)=O [XN, Methyl (2S,3R,4S)-1-acetyl-2-ethyl-3-methyl-4-(4-(4-(trifluoromethyl)phenyl)-1H-1,2,3-triazol-1-yl)-1,2,3,4-tetrahydroquinoline-6-carboxylate] | 14500 | 1910 | 7.6
CC[C@H]1[C@@H](C)[C@H](n2cc(C3CCCCC3)nn2)c2cc(C(=O)OC)ccc2N1C(C)=O [XO, Methyl-(2S,3R,4S)-1-acetyl-4-(4-cyclohexyl-1H-1,2,3-triazol-1-yl)-2-ethyl-3-methyl-1,2,3,4-tetrahydroquinoline-6-carboxylate] | 5520 | 860 | 6.4
C#CCOCCOCc1cn([C@@H]2c3cc(C(=O)OC)ccc3N(C(C)=O)[C@@H](CC)[C@H]2C)nn1 [XP, Methyl-(2S,3R,4S)-1-acetyl-2-ethyl-3-methyl-4-(4-((2-(prop-2-yn-1-yloxy)ethoxy)methyl)-1H-1,2,3-triazol-1-yl)-1,2,3,4-tetrahydroquinoline-6-carboxylate] | ~30000 | 2260 | 13.2
C#CCOCCOCCOCCOCc1cn([C@@H]2c3cc(C(=O)OC)ccc3N(C(C)=O)[C@@H](CC)[C@H]2C)nn1 [XR, Methyl-(2S,3R,4S)-4-(4-(2,5,8,11-tetraoxatetradec-13-yn-1-yl)-1H-1,2,3-triazol-1-yl)-1-acetyl-2-ethyl-3-methyl-1,2,3,4-tetrahydroquinoline-6-carboxylate] | > 100000 | 2360 | –
C#CCOCCOCCOCCOCCOCc1cn([C@@H]2c3cc(C(=O)OC)ccc3N(C(C)=O)[C@@H](CC)[C@H]2C)nn1 [XS, Methyl-(2S,3R,4S)-4-(4-(2,5,8,11,14-pentaoxaheptadec-16-yn-1-yl)-1H-1,2,3-triazol-1-yl)-1-acetyl-2-ethyl-3-methyl-1,2,3,4-tetrahydroquinoline-6-carboxylate] | ~30000 | 1300 | 23.1
C#CCOCCOCCOCCOCCOCCOCc1cn([C@@H]2c3cc(C(=O)OC)ccc3N(C(C)=O)[C@@H](CC)[C@H]2C)nn1 [XT, Methyl-(2S,3R,4S)-4-(4-(2,5,8,11,14,17-hexaoxaicos-19-yn-1-yl)-1H-1,2,3-triazol-1-yl)-1-acetyl-2-ethyl-3-methyl-1,2,3,4-tetrahydroquinoline-6-carboxylate] | ~35000 | 2040 | 17.2
CC[C@H]1[C@@H](C)[C@H](n2cc(-c3ccccc3)nn2)c2cc(C(F)(F)F)ccc2N1C(C)=O [YC, 1-((2S,3R,4S)-2-Ethyl-3-methyl-4-(4-phenyl-1H-1,2,3-triazol-1-yl)-6-(trifluoromethyl)-3,4-dihydroquinolin-1(2H)-yl)ethan-1-one] | – | 22500 | –
CC[C@H]1[C@@H](C)[C@H](N=[N+]=[N-])c2cc(-c3ccc(NC(=O)CCCCCCC(=O)NO)cc3)ccc2N1C(C)=O [YH, N-(4-((2S,3R,4S)-1-acetyl-4-azido-2-ethyl-3-methyl-1,2,3,4-tetrahydroquinolin-6-yl)phenyl)-N-hydroxyoctanediamide] | – | – | 1.6
